# Assay results: PubChem BioAssay (NCI)
# Several values for one entry are separate records, joined by “and”; a condition that tells them apart may be missing. Equal entries are not always repeated.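 Tested at 5 concentrations; 48 h exposure; 96-well plates; endpoints linearly interpolated, else capped at highest concentration. GI50 marks 50% less growth. TGI: total growth inhibition.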
# How the values were obtained:
# Assay in all cases: DTP human tumour cell line panel, 48 h
# CCRF-CEM leukemia = tested on: CCRF-CEM leukemia
# HCT-15 colon = tested on: HCT-15 colon
# HOP-62 NSCLC = tested on: HOP-62 NSCLC
# MALME-3M melanoma = tested on: MALME-3M melanoma
# OVCAR-8 ovarian = tested on: OVCAR-8 ovarian
# RXF 393 renal = tested on: RXF 393 renal
# SK-OV-3 ovarian = tested on: SK-OV-3 ovarian
# SR leukemia = tested on: SR leukemia
# BT-549 breast = tested on: BT-549 breast
# NCI-H23 lung = tested on: NCI-H23 lung
SMILES,TGI (CCRF-CEM leukemia),TGI (HCT-15 colon),TGI (HOP-62 NSCLC),TGI (MALME-3M melanoma),TGI (OVCAR-8 ovarian),TGI (RXF 393 renal),TGI (SK-OV-3 ovarian),TGI (SR leukemia),GI50 (BT-549 breast),TGI (BT-549 breast),GI50 (HCT-15 colon),GI50 (HOP-62 NSCLC),GI50 (MALME-3M melanoma),GI50 (NCI-H23 lung),TGI (NCI-H23 lung),GI50 (OVCAR-8 ovarian),GI50 (RXF 393 renal),GI50 (SK-OV-3 ovarian),GI50 (CCRF-CEM leukemia),GI50 (SR leukemia)
C=C[C@@H](C)[C@]1(C(=O)OC)CCCC12OCCO2,> 100 µM,> 100 µM,> 100 µM,> 100 µM,> 100 µM,> 100 µM,> 100 µM,> 100 µM,–,–,–,–,–,–,–,–,–,–,–,–
CCCCCCCCCCCCCCCC1=NCC[N+]1(CCO)CCO,–,4.48 µM,3.23 µM,28 µM,8.36 µM,6.28 µM,15.9 µM,–,3.3 µM,11.9 µM,1.94 µM,1.71 µM,12.2 µM,2.16 µM,5.08 µM,3.03 µM,2.47 µM,4.3 µM,–,–
O=C(CCC(=O)Nc1ccc(Cl)c(Cl)c1)Cc1nc2ccccc2o1,> 100 µM,> 100 µM,> 100 µM,> 100 µM,> 100 µM,> 100 µM,> 100 µM,> 100 µM,–,–,–,–,–,–,> 100 µM,–,–,–,–,–
CSc1ccc2c(cc1=O)[C@@H](NC(=O)c1cccc([N+](=O)[O-])c1)CCc1cc(O)c(O)c(O)c1-2,> 100 µM,> 100 µM,> 100 µM,> 100 µM,> 100 µM,> 100 µM,> 100 µM,–,–,–,–,–,–,–,> 100 µM,–,–,–,–,–
Cc1cnc2ccc(C)c([N+](=O)[O-])c2c1NCCCN(C)C,> 100 µM,> 100 µM,> 100 µM,> 100 µM,> 100 µM,–,> 100 µM,> 100 µM,–,–,–,–,–,–,> 100 µM,–,–,–,–,–
O=C(NCCCCN1CCOCC1)c1cc2ccccc2o1,–,> 100 µM,> 100 µM,> 100 µM,> 100 µM,> 100 µM,> 100 µM,–,> 100 µM,> 100 µM,> 100 µM,> 100 µM,> 100 µM,> 100 µM,> 100 µM,> 100 µM,> 100 µM,> 100 µM,–,–
Cc1c(C)c2ccc3oc4ccccc4c3c2oc1=O,> 100 µM,> 100 µM,> 100 µM,> 100 µM,> 100 µM,> 100 µM,> 100 µM,> 100 µM,–,–,–,–,–,–,> 100 µM,–,–,–,–,–
CCOC(OC(C)=O)[C@@H]1C=C[C@H](C)N(c2ccc([N+](=O)[O-])cc2)O1 (stereo partly drawn),> 21.8 µM,6.77 µM,31.6 µM,20.1 µM,4.55 µM,22.4 µM,35.3 µM,–,–,–,–,–,–,–,16.2 µM,–,–,–,–,–
COc1cc2cc(OC(C)=O)c3cc4c(cc3c2c(OC)c1OC)OCO4,> 100 µM,> 100 µM,> 100 µM,> 100 µM,> 100 µM,> 100 µM,> 100 µM,–,–,–,–,–,–,–,> 100 µM,–,–,–,–,–
Nc1nc(/C=C\c2ccc([N+](=O)[O-])s2)nc(N2CCN(c3ccccc3)CC2)n1,79.1 µM,28.3 µM,64.3 µM,59.8 µM,52.7 µM,37.2 µM,62.5 µM,–,21.8 µM,48 µM,14.6 µM,29 µM,24.9 µM,–,–,22.2 µM,18.6 µM,30.7 µM,29.3 µM,–
COc1ccc2ncn(-c3cc(O[C@H](C)c4ccccc4C(F)(F)F)c(C(N)=O)s3)c2c1,14.5 µM,17.2 µM,4.18 µM,9.51 µM,8.81 µM,3.72 µM,5.56 µM,–,0.474 µM,7 µM,0.134 µM,0.105 µM,4.5 µM,0.113 µM,5.9 µM,0.117 µM,0.0902 µM,0.1 µM,0.0821 µM,–
COC(=O)c1cc2c(=O)n(C)c3ccccc3n2c1C(=O)OC,> 100 µM,> 100 µM,36.9 µM,> 100 µM,> 100 µM,> 100 µM,66.8 µM,–,–,–,–,–,–,–,> 100 µM,–,–,–,–,–
COc1cc(/C=C2\CC3C4CC=C5C[C@@H](OC(C)=O)CC[C@]5(C)C4CC[C@]3(C)C2=O)ccc1OCCN1CCCCC1 (stereo partly drawn),3.35 µM,3.25 µM,25.9 µM,3.35 µM,28.2 µM,14.6 µM,8.5 µM,–,15.1 µM,31.7 µM,1.29 µM,12.1 µM,1.66 µM,10.4 µM,22.2 µM,4.27 µM,2.95 µM,2.75 µM,1.25 µM,–
COc1c/c(=C2\C=c3ccccc3=N2)[nH]/c1=C\c1[nH]c(C)cc1C,6.64 µM,4.33 µM,6.87 µM,–,> 21.8 µM,> 100 µM,> 88.7 µM,–,0.0319 µM,31.3 µM,< 0.0225 µM,0.468 µM,0.0328 µM,0.0986 µM,7.08 µM,0.214 µM,0.538 µM,1.54 µM,< 0.01 µM,–
CC(=O)Nc1ccc(/C=C/C(=O)c2sc(-c3cccnc3)nc2C)cc1,> 100 µM,> 100 µM,> 100 µM,> 100 µM,> 100 µM,> 100 µM,> 100 µM,–,–,–,–,–,–,–,> 100 µM,–,–,–,–,–
O=C1[C@H]2ON(c3ccccc3)C(c3ccc([N+](=O)[O-])cc3)[C@H]2C(=O)N1c1ccc(Cc2ccc(N3C(=O)[C@@H]4ON(c5ccccc5)C(c5ccc([N+](=O)[O-])cc5)[C@@H]4C3=O)cc2)cc1 (stereo partly drawn),> 100 µM,> 100 µM,> 100 µM,> 100 µM,> 100 µM,> 100 µM,> 100 µM,–,–,–,–,–,–,–,> 100 µM,–,–,–,–,–
CCOC(=O)c1cc(C(=O)c2ccc(OC)cc2)n2ccc(/C=C/c3cc[n+](CC(=O)c4ccc(OC)cc4)cc3)cc12,–,> 100 µM,36.8 µM,3.66 µM,8.32 µM,–,> 100 µM,2.29 µM,–,–,5.67 µM,3.4 µM,1.67 µM,2.22 µM,5.5 µM,2.02 µM,–,> 100 µM,–,0.367 µM
COC(=O)[C@@H]1c2cc3c(c(O)c2[C@@H](OC2OC(C)C(OC)C(C)(OC)C2OC)C[C@]1(C)O)C(=O)c1c(O)cc2c(c1C3=O)O[C@H]1O[C@]2(C)[C@H](O)[C@@H](N(C)C)[C@@H]1O (stereo partly drawn),0.198 µM and 0.258 µM,1.14 µM,0.328 µM and 0.0435 µM,0.0666 µM and 0.0545 µM,0.532 µM and 0.348 µM,0.0749 µM and 0.0594 µM,4.94 µM,–,–,0.0588 µM,0.117 µM,–,–,0.0141 µM,0.0399 µM and 0.0694 µM,–,–,–,–,–
